Here are results for 17 compounds from US8163718B2, “Nucleoside analogues containing phosphonate or phosphonamide groups” (Gilead Sciences, Inc., priority 2008, dated 2012).

Common to all, as to assay: Cytostatic cell culture assay (GI50), SRB
Holding throughout (format): cell-based

Assay [1] deals with BT-549. To be noted: Homo sapiens, BT-549, 120 h; 5 days incubation. The text has this: (§1) The assay is based on quantification of cell counts by a colorimetric detection of the cell associated proteins. The assay relies on the ability of sulforhodamine B (SRB) to bind to protein components of cells that have been fixed to tissue-culture plates by trichloroacetic acid (TCA). SRB is a bright-pink aminoxanthene dye with two sulfonic groups that bind to basic amino-acid residues under mild acidic conditions, and dissociate under basic conditions. As the binding of SRB is stoichiometric, the amount of dye extracted from stained cells is directly proportional to the cell mass.
(§2) Cell lines: All cell lines were obtained from ATCC (Manassas, Va.). Cultivation media containing Glutamax, and trypsin were purchased from Invitrogen (Carlsbad, Calif.). Doxorubicin, Clofarabine, TCA and SRB were from Sigma-Aldrich (St. Louis, Mo.). Gemcitabine was obtained from Moravek Biochemicals (Brea, Calif.)
(§3) • 1. Trypsinize the sub-confluent cells, count them, and adjust the cell concentrations according to the cell counts listed in Table 1. • 2. Distribute the cells into the 96-well plates in 150 μL of media. Incubate the plates overnight in humidified CO2 incubator at 37° C. • 3. Fix one plate of each cell line with TCA. Discard the cultivation media from the plates by flicking them gently and add 100 ul cold 10% (vol/vol) TCA to each well. Incubate the plates at 4 degree refrigerator for 1 hour. Discard TCA from the plates by flicking them gently. Rinse plates four times in a washing basin containing tap water. Store the plates at room temperature. These plates represent cell counts on day zero. • 4. Prepare a set of medium solutions containing various concentrations of tested compounds by making 5-fold serial dilutions in 96-well plate. Add 50 μL of the diluted compounds per well. Include controls with untreated cells and cells treated with doxorubicin, clofarabine and gemcitabine. • 5. Incubate the plates for 5 days at 37° C. • 6. Fix the plates with TCA. Discard the cultivation media from the plates by flicking them gently and add 100 ul cold 10% (vol/vol) TCA to each well. Incubate the plates at 4 degree refrigerator for 1 hour. Discard TCA from the plates by flicking them gently. Rinse plates four times in a washing basin containing tap water. • 7. Remove excess water by tapping the plates face down, gently on a paper towel. Allow the plates to air-dry at room temperature. • 8. Add 100 ul of 0.057% SRB solution in 1% (vol/vol) acetic acid to each well of the plates fixed with TCA on day zero and five. Leave at room temperature for 30 minutes. • 9. Flick the plates gently to discard SRB. Rinse the plates four times with 1% (vol/vol) Acetic Acid. • 10. Store the plates at 37 degree incubator to facilitate faster drying. • 11. Once the plates are completely dry, add 200 ul of 10 mM Tris base solution (pH 10.5) to each well. Leave at room temperature for 30 minutes for SRB to solubilize. • 12. Measure the OD at 500 nm in a microplate reader • 13. Calculate the percentage of cell-growth inhibition using the next formula: % of control cell growth=100×(ODsample−mean ODday0)/(ODneg control−mean ODday0)
(§4) For GI50 determination, plot a dose-response curve between the compound concentration and percent of growth inhibition. GI50 values can be derived by fitting dose-response curves using sigmoidal dose response equation.

The subject of assay [2] is HCT-116. To be noted: Homo sapiens, HCT-116, 120 h; 5 days incubation.
Description: as §1, §2, §3, §4

The subject of assay [3] is A549. To be noted: Homo sapiens, A549, 120 h; 5 days incubation.
Description: as §1, §2, §3, §4

The test system of assay [4] is PC3. The following applies: Homo sapiens, PC-3, 120 h; 5 days incubation.
Description: as §1, §2, §3, §4

The test system of assay [5] is NCI-H23. To be noted: Homo sapiens, NCI-H23, 120 h; 5 days incubation.
Description: as §1, §2, §3, §4

Assay [6] relates to Du-145. To be noted: Homo sapiens, DU-145, 120 h; 5 days incubation.
Description: as §1, §2, §3, §4

Assay [7] has as its system HCT-15. The following applies: Homo sapiens, HCT-15, 120 h; 5 days incubation.
Description: as §1, §2, §3, §4

For assay [8], the system named is Hs-578. To be noted: Hs578, 120 h; 5 days incubation.
Description: as §1, §2, §3, §4

In the case of `COCCOc1nc(N)nc2c1ncn2CCOCP(=O)(O)O` [Example 11, {2-[2-Amino-6-(2-methoxy-ethoxy)-purin-9-yl]-ethoxymethyl}-phosphonic acid], the GI50 in assay [1] was > 10000 nM; in assay [2], 11000 nM; in assay [3], 11000 nM; in assay [4], 3760 nM; in assay [5], 1980 nM; in assay [6], 805 nM. Besides, the GI50 is > 10000 nM in assay [7] and 5100 nM in assay [8].
Turning to `Nc1nc(NC2CC2)c2ncn(CCOCP(=O)(O)O)c2n1` [Example 12, [2-(2-Amino-6-cyclopropylamino-purin-9-yl)-ethoxymethyl]-phosphonic acid], the GI50 in assay [1] was 70000 nM; in assay [2], 38000 nM; in assay [3], 35000 nM; in assay [4] it was 6100 nM; in assay [5], 2190 nM; in assay [6], 1230 nM. Moreover, the concentration for 50% growth inhibition (GI50) came to 38000 nM in assay [7] and 18000 nM in assay [8].
As to `CCCCOC(=O)[C@H](C)NP(=O)(COCCn1cnc2c(OCCC)nc(N)nc21)N[C@@H](C)C(=O)OCCCC` [Example 13], the 50% growth inhibitory concentration (GI50) in assay [1] came to 61 nM; in assay [2], 13 nM; in assay [3], 52 nM; in assay [4], 11 nM; in assay [5], 4 nM; in assay [6] it was 2 nM. Also, the GI50 in assay [7] was determined as 1090 nM; in assay [8] it was 105 nM.
As to `CCCOc1nc(N)nc2c1ncn2CCOCP(=O)(N[C@@H](C)C(=O)OCC)N[C@@H](C)C(=O)OCC` [Example 14], the 50% growth inhibitory concentration (GI50) in assay [1] was found to be 266 nM; in assay [2] it was 488 nM; in assay [3], 381 nM; in assay [4], 275 nM; in assay [5] it was 29 nM; in assay [6] it was 28 nM. For the same compound, the 50% growth inhibitory concentration (GI50) was > 10000 nM in assay [7] and 202 nM in assay [8].
Turning to `CCCOc1nc(N)nc2c1ncn2CCOCP(=O)(N[C@@H](Cc1ccccc1)C(=O)OCC)N[C@@H](Cc1ccccc1)C(=O)OCC` [Example 15], the GI50 stood at 102 nM in assay [1]; 18 nM in assay [2]; 81 nM in assay [3]; 26 nM in assay [4]; 7 nM in assay [5]; 3 nM in assay [6]. For the same compound, the GI50 worked out at 1280 nM in assay [7] and 112 nM in assay [8].
Take `CCCOc1nc(N)nc2c1ncn2CCOCP(=O)(N[C@@H](C)C(=O)OC(C)C)N[C@@H](C)C(=O)OC(C)C` [Example 16]: the GI50 in assay [1] amounted to 1830 nM; in assay [2] it was 1320 nM; in assay [3], 736 nM; in assay [4] it was 591 nM; in assay [5] it was 92 nM; in assay [6] it was 67 nM. Besides, the concentration for 50% growth inhibition (GI50) in assay [7] was > 10000 nM; in assay [8], 870 nM.
Turning to `CCCCOC(=O)[C@H](Cc1ccccc1)NP(=O)(COCCn1cnc2c(OCCC)nc(N)nc21)N[C@@H](Cc1ccccc1)C(=O)OCCCC` [Example 17], the concentration for 50% growth inhibition (GI50) was determined as 17 nM in assay [1]; 4 nM in assay [2]; 5 nM in assay [3]; 6 nM in assay [4]; 2 nM in assay [5]; 1 nM in assay [6]. In addition, the GI50 in assay [7] was 336 nM; in assay [8], 5 nM.
For `CCCOc1nc(N)nc2c1ncn2CCOCP(=O)(N[C@H](C)C(=O)OC)N[C@H](C)C(=O)OC` [Example 18], the GI50 in assay [1] was determined as 7600 nM; in assay [2], 9000 nM; in assay [3], 9900 nM; in assay [4] it was 5400 nM; in assay [5] it was 2330 nM; in assay [6] it was 1280 nM. The concentration for 50% growth inhibition (GI50) was found to be 24000 nM in assay [7] and 9100 nM in assay [8].
Regarding `CCCOc1nc(N)nc2c1ncn2CCOCP(=O)(N[C@@H](Cc1ccccc1)C(=O)OCC(C)C)N[C@@H](Cc1ccccc1)C(=O)OCC(C)C` [Example 19], the GI50 was 53 nM in assay [1]; 5 nM in assay [2]; 4 nM in assay [3]; 10 nM in assay [4]; 1 nM in assay [5]; 1 nM in assay [6]. Further, the GI50 in assay [7] came out at 467 nM; in assay [8], 5 nM.
Regarding `CCCOc1nc(N)nc2c1ncn2CCOCP(=O)(N1CCC[C@H]1C(=O)OCc1ccccc1)N1CCC[C@H]1C(=O)OCc1ccccc1` [Example 20], the concentration for 50% growth inhibition (GI50) in assay [1] was found to be 167 nM; in assay [2] it was 264 nM; in assay [3], 530 nM; in assay [4] it was 111 nM; in assay [5], 30 nM; in assay [6], 27 nM. Further, the 50% growth inhibitory concentration (GI50) in assay [7] stood at 2350 nM; in assay [8] it was 132 nM.
On to `CCCOc1nc(N)nc2c1ncn2CCOCP(=O)(N1CCC[C@H]1C(=O)OC)N1CCC[C@H]1C(=O)OC` [Example 22], for which the concentration for 50% growth inhibition (GI50) was 116 nM in assay [1]; 194 nM in assay [2]; 640 nM in assay [3]; 121 nM in assay [4]; 38 nM in assay [5]; 35 nM in assay [6]. The GI50 was > 10000 nM in assay [7] and 82 nM in assay [8].
In the case of `CCCOC(=O)[C@@H]1CCCN1P(=O)(COCCn1cnc2c(OCCC)nc(N)nc21)N1CCC[C@H]1C(=O)OCCC` [Example 23], the GI50 in assay [1] turned out to be 7 nM; in assay [2], 28 nM; in assay [3] it was 317 nM; in assay [4] it was 11 nM; in assay [5], 3 nM; in assay [6], 1 nM. Further, the 50% growth inhibitory concentration (GI50) in assay [7] is 2470 nM; in assay [8], 4 nM.
`CCCOc1nc(N)nc2c1ncn2CCOCP(=O)(N1CCC[C@H]1C(=O)OC(C)C)N1CCC[C@H]1C(=O)OC(C)C` [Example 24]: the GI50 was 386 nM in assay [1]; 979 nM in assay [2]; 3820 nM in assay [3]; 634 nM in assay [4]; 124 nM in assay [5]; 138 nM in assay [6]. Besides, the GI50 is > 10000 nM in assay [7] and 452 nM in assay [8].
Turning to `CCCCOC(=O)[C@@H]1CCCN1P(=O)(COCCn1cnc2c(OCCC)nc(N)nc21)N1CCC[C@H]1C(=O)OCCCC` [Example 25], the GI50 in assay [1] stood at 15 nM; in assay [2], 43 nM; in assay [3] it was 450 nM; in assay [4], 16 nM; in assay [5], 2 nM; in assay [6], 2 nM. In addition, the GI50 in assay [7] stood at 1490 nM; in assay [8], 8 nM.
Regarding `CCCCCCOC(=O)[C@@H]1CCCN1P(=O)(COCCn1cnc2c(OCCC)nc(N)nc21)N1CCC[C@H]1C(=O)OCCCCCC` [Example 26], the GI50 was determined as 67 nM in assay [1]; 119 nM in assay [2]; 1050 nM in assay [3]; 81 nM in assay [4]; 9 nM in assay [5]; 2 nM in assay [6]. The GI50 in assay [7] is 1950 nM; in assay [8], 97 nM.
For `CCCCOC(=O)[C@H](C)NP(=O)(COCCn1cnc2c(OC)nc(N)nc21)N[C@@H](C)C(=O)OCCCC` [Example 27], the GI50 in assay [1] amounted to 33 nM; in assay [2], 23 nM; in assay [3] it was 26 nM; in assay [4] it was 13 nM; in assay [5], 4 nM; in assay [6], 2 nM. Moreover, the concentration for 50% growth inhibition (GI50) in assay [7] was 2370 nM; in assay [8] it was 53 nM.
With `CCOC(=O)[C@H](C)NP(=O)(COCCn1cnc2c(OC)nc(N)nc21)N[C@@H](C)C(=O)OCC` [Example 28], the 50% growth inhibitory concentration (GI50) in assay [1] worked out at 573 nM; in assay [2], 859 nM; in assay [3] it was 736 nM; in assay [4] it was 381 nM; in assay [5], 28 nM; in assay [6] it was 47 nM. For the same compound, the values for the GI50 in assay [7] and in assay [8] were > 10000 nM and 380 nM, respectively.

By GI50 is commonly meant the concentration at which growth is held to half of that of the control.
